Experimental data as given in US20140378460A1, “COMPOSITIONS AND METHODS FOR TREATING NEURODEGENERATIVE DISEASE” (COGNITION THERAPEUTICS, INC., priority 2011, published 2014).
Like-named read-outs stand apart in the source and are kept apart here.

Key:
sigma-2 receptor [1] = biological target: T1, sigma-2 receptor (Rattus norvegicus, UniProt Q5U3Y7); experiment: Sigma-2 competitive radioligand binding, [3H]DTG with 300 nM (+)pentazocine, rat cerebral cortex membranes
T1 sequence (Q5U3Y7 1-176): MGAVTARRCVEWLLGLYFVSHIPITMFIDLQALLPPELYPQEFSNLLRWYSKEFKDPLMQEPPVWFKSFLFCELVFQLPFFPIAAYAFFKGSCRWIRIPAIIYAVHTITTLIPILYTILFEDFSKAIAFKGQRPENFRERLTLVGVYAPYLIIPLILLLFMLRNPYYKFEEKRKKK
Experimental: (§1) Reactions were terminated by rapid filtration through Whatman GF/C filters using a Brandel 12R cell harvester followed by two washes with ice-cold buffer. Radioactivity on the dried filter discs was measured using a liquid scintillation analyzer (Tri-Carb 2900TR; PerkinElmer Life and Analytical Sciences). The displacement curves were plotted and the Ki values of the test ligands for the receptor subtypes were determined using GraphPad Prism (GraphPad Software Inc., San Diego, Calif.). The percentage specific binding was determined by dividing the difference between total bound (disintegrations per minute) and nonspecific bound (disintegrations per minute) by the total bound (disintegrations per minute).

[2] = test system: Abeta oligomer-induced synapse loss in primary hippocampal neurons; experiment: Synapse loss assay; assay type: cell-based, rat; conditions: Table 11B
Experimental: In this assay, Abeta oligomers were brought in contact with mature primary neurons in culture and their binding was determined by immunohistochemistry (anti-Abeta antibody) and quantified by image processing. The amount of Abeta in neuronal dendrites is assessed by counting the number of labeled puncta on the neuritis. […] This labeling is associated with synapses, co-localizing with the post-synaptic scaffold protein PSD-95 (Lacor et al., '04). […] The number of synapses can also be quantified in this assay by immunofluorochemistry. Similar procedures for binding assays can be found in the literature. […] Review.
Primary hippocampal neuronal culture was established as in the membrane trafficking assay above. […] Pretreatment with compounds to be tested lasted for 1 hr and addition of Abeta oligomers or no oligomer (vehicle alone) in a final concentration of 70 ul was followed by incubation for an additional 23 hrs.
The plates were then washed 3× with PBS for 5 min each. The plates were blocked at RT for 1 hr in 5% goat serum and 0.5% Triton X-100 in PBS. […] Primary antibodies were incubated overnight at 4° C. The plates were then washed 3× with PBS for 5 min each. […] Secondary antibodies were incubated at RT for 1 hr. The plates were washed once with PBS. DAPI (4′,6-diamidino-2-phenylindole, Invitrogen) was then applied at 0.03 ug/ul and incubated at RT for 5 min, then washed with PBS.

[3] = test system: Abeta oligomer-induced membrane trafficking deficits in primary hippocampal neurons; experiment: Membrane trafficking/exocytosis (MTT) assay; assay type: cell-based, rat
Experimental: The methods used to generate the results were as follows in the Membrane Trafficking/Exocytosis (MTT) assay.
Primary hippocampal neurons from E18 Sprague-Dawley rat embryos were plated at optimized concentrations in 384 well plates in NB media (Invitrogen). Neurons were maintained in cultures for 3 weeks, with twice weekly feeding of NB media with N2 supplement (Invitrogen).
A test compound was added to cells at concentrations ranging from 100 uM to 0.001 nM followed by addition of vehicle or Abeta oligomer preparations (3 μM total Abeta protein concentration), and incubated for 1 to 24 hr at 37° C. in 5% CO2. MTT reagent (3-(4,5-dimethylthizaol-2-yl)-2,5diphenyl tetrazolium bromide) (Roche Molecular Biochemicals) was reconstituted in phosphate buffered saline to 5 mg/mL. 10 μl, of MTT labeling reagent is added to each well and incubated at 37° C. for 1 h, then imaged. Exocytosis was assessed by automated microscopy and image processing to quantify the amount of endocytosed and exocytosed formazan.
Each assay plate was formatted so that compounds are tested with and without Abeta oligomer on each plate.

Sigma-1 receptors [4] = biological target: Sigma-1 receptors (Homo sapiens, UniProt Q99720); experiment: Sigma-1 competitive radioligand binding, [3H](+)pentazocine, Jurkat cell membranes
Chain of Sigma-1 receptors (Homo sapiens, UniProt Q99720) (Q99720 whole entry): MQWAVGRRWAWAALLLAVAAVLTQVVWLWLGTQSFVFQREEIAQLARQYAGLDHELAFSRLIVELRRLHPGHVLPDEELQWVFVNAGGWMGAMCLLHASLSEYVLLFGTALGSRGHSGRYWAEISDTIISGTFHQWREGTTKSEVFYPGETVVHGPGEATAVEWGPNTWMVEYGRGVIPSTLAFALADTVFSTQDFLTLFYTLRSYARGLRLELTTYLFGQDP
Experimental: as §1

sigma-2 receptor [5] = biological target: T1, sigma-2 receptor; design: other: known prior art compounds, published studies; conditions: cited from earlier work
Sigma-1 receptors [6] = conditions: known prior art compounds; cited from earlier work
Sigma-1 receptors [7] = biological target: T2, Sigma-1 receptors (UniProt Q60492); conditions: cited from earlier work
T2 construct: other: known prior art compounds, published studies

[8] = Sigma 2 Binding Ki (nM), Table 2, own compounds
[9] = Sigma 1 Binding Ki (nM), Table 2, own compounds
[10] = dosed prior to Abeta oligomer addition, read-out: EC50 in inhibiting amyloid beta effect in Cell Measured by Membrane Trafficking Assay
[11] = Table 11C, known prior art compounds, read-out: Inhibition Abeta oligomer-induced Membrane Trafficking EC50
[12] = Rattus norvegicus, Hippocampal neuron, dosed prior to Abeta oligomer addition, read-out: EC50 in inhibiting amyloid beta effect in Cell Measured by Membrane Trafficking Assay
[13] = scaffold drawing 245, R' varied, read-out: Membrane Trafficking EC50

Q: Which results are given for COc1cc(CCC(C)NCc2ccc(C(F)(F)F)cc2)ccc1O (single isomer, unassigned) [II (+) isomer]?
A: Ki (sigma-2 receptor [1]; S2 binding Ki (nM), Table 11B): 80 nM; Ki (sigma-2 receptor [1]; [8]): 52 nM; Block synapse loss [2]: 47%; EC50 ([3]; Rattus norvegicus, Hippocampal neuron, Table 11B, read-out: Inhibition Abeta oligomer-induced Membrane Trafficking EC50): 5600 nM; Functional Neuronal Phenotype ([3]; Table 11B): Antagonist; Ki (Sigma-1 receptors [4]; S1 binding Ki (nM), Table 11B): 100 nM; Ki (Sigma-1 receptors [4]; [9]): 100 nM

Q: Which Ki (sigma-2 receptor [1]; S2 binding Ki (nM), Table 11B) does the source give for COc1cc(CCC(C)NCc2ccc(C(F)(F)F)cc2)ccc1O (single isomer, unassigned) [II (−) isomer] here?
A: 63 nM

Q: What about the Ki (sigma-2 receptor [1]; [8]) of the same compound?
A: 63 nM

Q: And the Block synapse loss [2]?
A: 0%

Q: What about the “Functional Neuronal Phenotype” value ([3]; Table 11B) of the same compound?
A: Antagonist

Q: What about the Ki (Sigma-1 receptors [4]; S1 binding Ki (nM), Table 11B) of the same compound?
A: 46 nM

Q: And the Ki (Sigma-1 receptors [4]; [9])?
A: 46 nM

Q: With COc1cc(CCC(C)NCc2ccc(C(F)(F)F)cc2)ccc1O (single isomer, unassigned; (+)) [(+) enantiomer of Cpd II] as the compound, how does the EC50 ([3]; read-out: EC 50 in screening assay using single concentration of Abeta oligomer) read?
A: 5600 nM

Q: For COc1cc(CCC(C)NCc2ccc(C(F)(F)F)cc2)ccc1O (single isomer, unassigned; (+)) [(+) enantiomer], which EC50 [3, 10] is on record?
A: 5600 nM

Q: For COc1cc(CCC(C)NCc2ccc(C(F)(F)F)cc2)ccc1O (single isomer, unassigned; (-)) [(−) enantiomer], which EC50 [3, 10] is on record?
A: 10900 nM

Q: With CN(CCc1ccc(Cl)c(Cl)c1)CCN1CCCC1 [BD1008] as the compound, how does the “Functional Neuronal Phenotype” value ([3]; Table 11C) read?
A: Antagonist

Q: And the EC50 [3, 11]?
A: 1500 nM

Q: And the “Functional Neuronal Phenotype” value ([3]; Table 11D)?
A: Antagonist

Q: What about the IC50 ([3]; Table 11D, read-out: Membrane trafficking IC50) of the same compound?
A: 1500 nM

Q: What about the Ki (sigma-2 receptor [5]; Table 11C, read-out: S2 binding Ki) of the same compound?
A: 8 nM

Q: What about the Ki (sigma-2 receptor [5]; Table 11D, read-out: Sigma-2 Receptor Ki) of the same compound?
A: 8 nM

Q: And the Ki (sigma-2 receptor [5]; known prior art compounds, published studies, read-out: Sigma 2 Binding Ki)?
A: 8 nM

Q: And the “Sigma 1 (Type of Activity)” value (Sigma-1 receptors [6])?
A: (antagonist)

Q: For CN1CCN(CCc2ccc(Cl)c(Cl)c2)CC1 [BD1063], which “Functional Neuronal Phenotype” value ([3]; Table 11C) is on record?
A: Inactive

Q: And the EC50 [3, 11]?
A: > 30000 nM

Q: And the “Sigma 1 (Type of Activity)” value (Sigma-1 receptors [6])?
A: (antagonist)

Q: And the Ki (Sigma-1 receptors [7]; Table 11C, read-out: S1 binding Ki)?
A: 8.8 nM

Q: And the Ki (Sigma-1 receptors [7]; known prior art compounds, published studies, read-out: Sigma 1 Binding Ki)?
A: 8.8 nM

Q: For CC(C)=CC(C[C@H](C)c1ccc(C)cc1)NCC(C)C (some centres unmarked) [Compound IXa], which Ki (sigma-2 receptor [1]) is on record?
A: 21 nM

Q: What about the “Max Inhibition of Abeta (%)” value [3] of the same compound?
A: 76%

Q: What about the EC50 [3, 12] of the same compound?
A: 4900 nM

Q: And the Ki (Sigma-1 receptors [4])?
A: 89 nM

Q: Which Ki (sigma-2 receptor [1]) does the source give for Cc1ccc([C@@H](C)CC(CC(C)(C)O)NCC(C)C)cc1 (some centres unmarked) [Compound IXb] here?
A: 23 nM

Q: And the “Max Inhibition of Abeta (%)” value [3]?
A: 97%

Q: And the EC50 [3, 12]?
A: 6900 nM

Q: And the Ki (Sigma-1 receptors [4])?
A: 190 nM

Q: What does the source list for Cc1ccccc1NC(=N)Nc1ccccc1C [DTG]?
A: Max Inhibition of Abeta (%) [3]: 23%; EC50 ([3]; Rattus norvegicus, Hippocampal neuron, Table 11C, known prior art compounds, read-out: Inhibition Abeta oligomer-induced Membrane Trafficking EC50): > 20000 nM; Functional Neuronal Phenotype ([3]; Table 11C): Inactive; Sigma 1 (Type of Activity) (Sigma-1 receptors [6]): (agonist)

Q: For COc1cc(CCC(C)NCc2ccc(Cl)cc2)ccc1O (centres unmarked) [Entry 2], which EC50 [3, 13] is on record?
A: 12000 nM

Q: For COc1cc(CCC(C)NCc2ccccc2)ccc1O (centres unmarked) [Entry 3], which EC50 [3, 13] is on record?
A: 20000 nM

Q: Which EC50 [3, 13] does the source give for COc1cc(CCC(C)NCCC(C)C)ccc1O (centres unmarked) [Entry 4] here?
A: > 30000 nM
